Read-outs that look alike come from different tables or passages of the source.
What was measured:
[1] = target: T1, JAK1/3 (Mus musculus, UniProt P52332+Q62137); test: IL-21-induced pSTAT-3 in murine whole blood; format: cell-based
T1 construct: endogenous in cells; host or cells: murine whole blood
Method: Mouse whole blood IC50 values were also generated to build an understanding of the relationship between systemic exposures and target engagement in murine models. In murine whole blood, the in vitro activity of compound of Formula I in the inhibition of IFNα-(JAK1/Tyk2), IL-21-(JAK1/3), and IL-12-(JAK2/Tyk2) induced pSTAT responses in murine whole blood was measured. […] No reliable IC50 could be reported for inhibition of IL-12 induced pSTAT-4 in murine whole blood.

[2] = Tissue distribution in mice after oral administration; format: in vivo, female C57Bl/6 mice; settings: oral 10 mg/kg; for concentration at 0.5 h / concentration at 1 h / concentration at 2 h / concentration at 3 h / concentration at 5 h / concentration at 7 h / concentration at 24 h: female, C57Bl/6, mouse
Method: Limited tissue (liver, intestine) distribution studies were conducted in female C57Bl/6 mice ([…]) at 0.5, 1, 2, 3, 5, 7, and 24 hours following oral administration of compound of Formula 1 at a dose of 10 mg/kg formulated as a solution in 20% HP-β-CD. The plasma and the following tissues were harvested for compound concentration analysis: liver, whole ileum, and whole colon. The ileum and colon were flushed with saline prior to homogenization. Feces were collected over a period of 24 hours. All tissues (except plasma) were homogenized in sterile water and compound of Formula I concentrations were determined using LC-MS/MS. […] The concentration of compound of Formula I in feces was 125.6 μg at 24 hours post dose.

[3] = Serum and colonic concentrations in IL-12/IL-18 studies S-1 and S-2; format: in vivo, C57BL/6 mice; settings: mice, mean±SEM; for concentration at 4 h / concentration at 30 min: C57BL/6, mouse, po; for concentration at 30 min: read-out: Serum 30 min post dosing
Method: C57BL/6 mice (6 to 8 weeks old) were randomized by weight and assigned to various treatment groups for each of two studies. Mice were challenged intraperitoneally with a combination of IL-12 (250 ng) and IL-18 (1 μg). To examine the effect of compound of Formula I on IL-12/IL-18-induced pSTAT-3 response, groups of mice were orally dosed with compound of Formula I 1 hour prior to IL-12/IL-18 challenge. Three hours after IL-12/IL-18 challenge, mice were euthanized with CO2 asphyxiation, blood was collected via cardiocentesis for PK analysis, and colon tissues were collected for measuring pSTAT-3 response and drug levels. Mice dosed orally with 20% 2-hydroxypropyl-β-cyclodextrin (HP-β-CD) were used as vehicle controls. Two independent studies (S-1 and S-2) were conducted to examine the effect of compound of Formula I on IL-12/IL-18-induced colonic pSTAT-3 response in mice. […] Serum levels were measured at 30 minutes and 4 hours (terminal) after dosing. […] Colon drug levels were measured 4 hours after dosing. […] Colonic exposure of compound of Formula I increased in a dose-dependent fashion. At 25 mg/kg dose, colonic exposure of compound of Formula I was 30814.5±5552.5 ng/g and 18256.5±4118.8 ng/g tissue. […] Oral dosing of compound of Formula I in mice resulted, as shown in other studies, in minimum systemic exposure and lack of consistent dose-dependent pharmacodynamic responses in the blood.
Data are presented as mean±SEM; N=3-7/group. BLOQ, below limit of quantification; min, minutes; h, hour(s).
Data are presented as mean±SEM; N=3 to 7/group. BLOQ, below limit of quantification; min, minutes; h, hour(s).

[4] = Serum and colon concentrations in explant studies SS-1 and SS-2; format: in vivo, C57BL/6 mice; settings: for concentration at 4 h: C57BL/6, mouse, po
Method: C57BL/6 mice (6 to 8 weeks old) were randomized by weight and assigned to various treatment groups for each study. Mice were dosed orally with indicated doses of compound of Formula I. At the termination of the study, blood was collected via cardiocentesis, serum and washed proximal colon was prepared for PK analysis.
The high colonic and low systemic exposure observed for compound of Formula I implicate the role for colonic drug levels as the key driver of the observed pharmacology.
Data are presented as mean±SEM; N=5/group. BLOQ, below limit of quantification.

[5] = colon, mean ± SD, read-out: Colon concentration
[6] = ileum, mean ± SD, read-out: Ileum concentration
[7] = liver, mean ± SD, read-out: Liver concentration
[8] = plasma, mean ± SD, read-out: Plasma concentration

T1 sequence (P52332 whole entry): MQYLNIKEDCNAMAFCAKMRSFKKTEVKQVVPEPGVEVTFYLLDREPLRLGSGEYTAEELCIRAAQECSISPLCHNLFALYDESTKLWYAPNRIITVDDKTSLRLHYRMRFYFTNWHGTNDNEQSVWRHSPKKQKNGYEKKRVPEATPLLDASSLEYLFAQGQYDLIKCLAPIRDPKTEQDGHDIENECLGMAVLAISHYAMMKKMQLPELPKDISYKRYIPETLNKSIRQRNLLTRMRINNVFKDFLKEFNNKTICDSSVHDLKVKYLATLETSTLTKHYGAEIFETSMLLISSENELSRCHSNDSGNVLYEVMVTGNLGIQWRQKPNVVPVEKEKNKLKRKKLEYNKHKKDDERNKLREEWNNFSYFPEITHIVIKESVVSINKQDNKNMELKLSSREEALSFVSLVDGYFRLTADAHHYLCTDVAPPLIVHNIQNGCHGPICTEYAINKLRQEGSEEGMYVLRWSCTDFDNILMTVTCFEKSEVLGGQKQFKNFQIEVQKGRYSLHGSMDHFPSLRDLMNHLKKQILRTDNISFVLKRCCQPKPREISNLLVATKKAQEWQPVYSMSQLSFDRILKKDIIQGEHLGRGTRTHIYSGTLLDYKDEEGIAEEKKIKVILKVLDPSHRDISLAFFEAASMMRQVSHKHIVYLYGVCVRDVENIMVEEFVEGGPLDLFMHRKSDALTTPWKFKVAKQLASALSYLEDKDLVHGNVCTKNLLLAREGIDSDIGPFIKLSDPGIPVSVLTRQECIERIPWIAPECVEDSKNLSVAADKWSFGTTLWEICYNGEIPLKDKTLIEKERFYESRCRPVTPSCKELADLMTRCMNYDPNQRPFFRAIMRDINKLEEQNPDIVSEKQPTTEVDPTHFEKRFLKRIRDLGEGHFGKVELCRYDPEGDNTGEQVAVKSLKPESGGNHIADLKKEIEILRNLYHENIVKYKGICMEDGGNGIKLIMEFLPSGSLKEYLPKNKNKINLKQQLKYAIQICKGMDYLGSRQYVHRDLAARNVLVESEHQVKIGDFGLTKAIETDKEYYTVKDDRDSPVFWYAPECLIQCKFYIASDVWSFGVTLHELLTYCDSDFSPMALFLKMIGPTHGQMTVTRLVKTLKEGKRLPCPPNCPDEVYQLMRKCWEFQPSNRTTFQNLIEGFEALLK
T1 sequence (Q62137 whole entry): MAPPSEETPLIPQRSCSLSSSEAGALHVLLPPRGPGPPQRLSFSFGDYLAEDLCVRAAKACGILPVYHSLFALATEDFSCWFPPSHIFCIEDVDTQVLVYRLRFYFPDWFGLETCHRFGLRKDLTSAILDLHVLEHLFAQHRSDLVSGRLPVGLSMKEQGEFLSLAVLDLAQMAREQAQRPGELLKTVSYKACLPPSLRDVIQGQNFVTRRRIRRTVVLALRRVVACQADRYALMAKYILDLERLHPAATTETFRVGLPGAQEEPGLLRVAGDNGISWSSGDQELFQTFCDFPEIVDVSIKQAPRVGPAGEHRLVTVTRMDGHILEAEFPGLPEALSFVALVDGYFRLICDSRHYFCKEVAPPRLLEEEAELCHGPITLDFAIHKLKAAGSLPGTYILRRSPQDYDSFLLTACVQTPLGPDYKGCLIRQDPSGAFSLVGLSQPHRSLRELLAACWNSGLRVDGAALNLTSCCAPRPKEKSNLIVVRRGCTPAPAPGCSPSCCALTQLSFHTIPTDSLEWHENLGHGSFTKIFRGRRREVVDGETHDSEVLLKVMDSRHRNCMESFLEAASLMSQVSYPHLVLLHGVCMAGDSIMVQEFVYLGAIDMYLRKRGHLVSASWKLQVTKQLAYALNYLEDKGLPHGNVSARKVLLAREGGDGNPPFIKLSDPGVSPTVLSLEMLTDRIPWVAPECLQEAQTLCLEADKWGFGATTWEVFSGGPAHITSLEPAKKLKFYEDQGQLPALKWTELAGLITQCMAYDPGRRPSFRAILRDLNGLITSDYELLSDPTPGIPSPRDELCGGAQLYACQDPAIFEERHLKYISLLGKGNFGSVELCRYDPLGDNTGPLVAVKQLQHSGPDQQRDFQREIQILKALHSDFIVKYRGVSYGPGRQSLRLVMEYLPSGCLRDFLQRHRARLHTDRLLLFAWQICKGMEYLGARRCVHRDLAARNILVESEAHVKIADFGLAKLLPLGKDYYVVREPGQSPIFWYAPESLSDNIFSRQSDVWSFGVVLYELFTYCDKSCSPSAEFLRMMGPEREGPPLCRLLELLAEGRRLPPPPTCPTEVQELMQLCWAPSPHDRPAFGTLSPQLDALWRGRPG
T1 sequence (Q9JHX3 20-529 partner): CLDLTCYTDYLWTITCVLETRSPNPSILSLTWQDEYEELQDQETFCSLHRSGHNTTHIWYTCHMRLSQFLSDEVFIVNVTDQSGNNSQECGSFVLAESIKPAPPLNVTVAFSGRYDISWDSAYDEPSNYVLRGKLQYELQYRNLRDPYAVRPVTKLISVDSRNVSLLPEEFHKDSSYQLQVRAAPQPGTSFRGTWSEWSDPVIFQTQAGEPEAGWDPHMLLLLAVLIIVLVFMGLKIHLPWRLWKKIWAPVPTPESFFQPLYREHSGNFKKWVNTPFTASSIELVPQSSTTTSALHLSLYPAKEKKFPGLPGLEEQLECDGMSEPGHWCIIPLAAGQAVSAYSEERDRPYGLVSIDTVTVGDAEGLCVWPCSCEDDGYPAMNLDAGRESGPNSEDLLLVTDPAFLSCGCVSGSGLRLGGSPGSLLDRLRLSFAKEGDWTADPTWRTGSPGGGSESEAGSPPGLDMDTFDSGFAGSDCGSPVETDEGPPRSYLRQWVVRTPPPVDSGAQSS
T1 sequence (P34902 23-369 partner): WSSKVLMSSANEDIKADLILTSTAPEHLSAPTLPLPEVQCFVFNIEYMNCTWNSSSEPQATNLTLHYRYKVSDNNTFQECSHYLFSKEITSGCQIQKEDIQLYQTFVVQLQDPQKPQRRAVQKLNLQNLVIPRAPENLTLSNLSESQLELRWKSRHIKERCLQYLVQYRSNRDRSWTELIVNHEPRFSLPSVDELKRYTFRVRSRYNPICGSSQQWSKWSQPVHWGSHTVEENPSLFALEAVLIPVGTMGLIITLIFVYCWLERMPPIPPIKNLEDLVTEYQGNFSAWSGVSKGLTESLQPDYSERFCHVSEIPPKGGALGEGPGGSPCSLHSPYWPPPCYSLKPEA

CC(C)(O)CNC(=O)Cc1nc2cnc3[nH]ccc3c2n1[C@H]1CC[C@H](CC#N)CC1 [Compound of Formula I, 2-(1-((1r,4r)-4-(Cyanomethyl)cyclohexyl)-1,6-dihydroimidazo[4,5-d]pyrrolo[2,3-b]pyridin-2-yl)-N-(2-hydroxy-2-methylpropyl)acetamide]
IC50 [1]: 415 nM | concentration at 0.5 h ([2]; colon, N = 2, read-out: Colon concentration): 94.2 ng/g | concentration at 1 h [2, 5]: 5110 ng/g | concentration at 2 h [2, 5]: 6620 ng/g | concentration at 3 h [2, 5]: 7760 ng/g | concentration at 5 h [2, 5]: 8450 ng/g | concentration at 7 h [2, 5]: 3790 ng/g | concentration at 24 h ([2]; colon, 24 h, mean ± SD, read-out: Colon concentration): 195 ± 120 ng/g | concentration at 0.5 h [2, 6]: 73.8 ± 11.6 ng/g | concentration at 1 h [2, 6]: 22700 ng/g | concentration at 2 h [2, 6]: 12000 ng/g | concentration at 3 h [2, 6]: 16400 ng/g | concentration at 5 h [2, 6]: 3440 ng/g | concentration at 7 h [2, 6]: 2250 ng/g | concentration at 24 h ([2]; ileum, 24 h, mean ± SD, read-out: Ileum concentration): 87.6 ± 17.8 ng/g | concentration at 0.5 h [2, 7]: 34.8 ± 16.5 ng/g | concentration at 1 h [2, 7]: 189 ± 304 ng/g | concentration at 2 h [2, 7]: 84.5 ± 114 ng/g | concentration at 3 h [2, 7]: 23.3 ± 0.8 ng/g | concentration at 5 h [2, 7]: 16.8 ± 8.8 ng/g | concentration at 7 h ([2]; liver, N = 2, read-out: Liver concentration): 24 ng/g | concentration at 0.5 h [2, 8]: 3.5 ± 1.8 ng/mL | concentration at 1 h [2, 8]: 2.6 ± 0.9 ng/mL | concentration at 2 h [2, 8]: 2.3 ± 0.2 ng/mL | concentration at 3 h [2, 8]: 3.2 ± 1.7 ng/mL | concentration at 5 h [2, 8]: 2.1 ± 0.9 ng/mL | concentration at 7 h [2, 8]: 6 ± 4.9 ng/mL | Liver concentration ([2]; 24 h, BLOQ (1 ng/mL)): BLOQ^b | Plasma concentration ([2]; 24 h, BLOQ (1 ng/mL)): BLOQ^b | concentration in feces ([2]; 24 hours post dose): 125.6 µg | concentration at 4 h ([3]; colon, 10 mg/kg, S-1, oral 10 mg/kg, read-out: Colon 4 h post dosing): 6600 ± 787 ng/g | concentration at 4 h ([3]; colon, 10 mg/kg, S-2, oral 10 mg/kg, read-out: Colon 4 h post dosing): 10100 ± 1300 ng/g | concentration at 4 h ([3]; colon, 25 mg/kg, S-1, oral 25 mg/kg, read-out: Colon 4 h post dosing): 30800 ± 5550 ng/g | concentration at 4 h ([3]; colon, 25 mg/kg, S-2, oral 25 mg/kg, read-out: Colon 4 h post dosing): 18300 ± 4120 ng/g | concentration at 4 h ([3]; colon, 50 mg/kg, S-1, oral 50 mg/kg, read-out: Colon 4 h post dosing): 59600 ± 11300 ng/g | concentration at 4 h ([3]; colon, 50 mg/kg, S-2, oral 50 mg/kg, read-out: Colon 4 h post dosing): 35600 ± 5560 ng/g | concentration at 30 min ([3]; serum, 10 mg/kg, S-1, oral 10 mg/kg): 7.4 ± 1.4 nM | concentration at 30 min ([3]; serum, 10 mg/kg, S-2, oral 10 mg/kg): 7 ± 0.7 nM | concentration at 30 min ([3]; serum, 25 mg/kg, S-1, oral 25 mg/kg): 21.8 ± 5.5 nM | concentration at 4 h ([3]; serum, 25 mg/kg, S-1, oral 25 mg/kg, read-out: Serum 4 h post dosing): 25 ± 20.3 nM | concentration at 30 min ([3]; serum, 25 mg/kg, S-2, oral 25 mg/kg): 70.5 ± 60.4 nM | concentration at 4 h ([3]; serum, 25 mg/kg, S-2, oral 25 mg/kg, read-out: Serum 4 h post dosing): 45.1 ± 24 nM | concentration at 30 min ([3]; serum, 50 mg/kg, S-1, oral 50 mg/kg): 122 ± 87.2 nM | concentration at 4 h ([3]; serum, 50 mg/kg, S-1, oral 50 mg/kg, read-out: Serum 4 h post dosing): 19.7 ± 8 nM | concentration at 30 min ([3]; serum, 50 mg/kg, S-2, oral 50 mg/kg): 38.8 ± 7.4 nM | concentration at 4 h ([3]; serum, 50 mg/kg, S-2, oral 50 mg/kg, read-out: Serum 4 h post dosing): 131 ± 108 nM | Serum 4 h post dosing ([3]; S-1, oral 10 mg/kg): BLOQ | Serum 30 min post dosing ([3]; S-1, oral 10 mg/kg, 10 mg/kg): 7.4 ± 1.4 nM | Colon 4 h post dosing ([3]; S-1, oral 25 mg/kg, 25 mg/kg): 30814.5 ± 5552.5 ng/g | Serum 30 min post dosing ([3]; S-1, oral 25 mg/kg, 25 mg/kg): 21.8 ± 5.5 nM | Serum 30 min post dosing ([3]; S-1, oral 50 mg/kg, 50 mg/kg): 121.7 ± 87.2 nM | Serum 4 h post dosing ([3]; S-2, oral 10 mg/kg): BLOQ | Serum 30 min post dosing ([3]; S-2, oral 10 mg/kg, 10 mg/kg): 7.0 ± 0.7 nM | Colon 4 h post dosing ([3]; S-2, oral 25 mg/kg, 25 mg/kg): 18256.5 ± 4118.8 ng/g | Serum 30 min post dosing ([3]; S-2, oral 25 mg/kg, 25 mg/kg): 70.5 ± 60.4 nM | Serum 30 min post dosing ([3]; S-2, oral 50 mg/kg, 50 mg/kg): 38.8 ± 7.4 nM | concentration at 4 h ([4]; colon, 0.25 mg/kg, SS-1, mice, 4 hours post oral dose 0.25 mg/kg, mean±SEM, read-out: Colon concentration): 446 ± 51.5 ng/g | concentration at 4 h ([4]; colon, 0.25 mg/kg, SS-2, mice, 4 hours post oral dose 0.25 mg/kg, mean±SEM, read-out: Colon concentration): 262 ± 30.5 ng/g | concentration at 4 h ([4]; colon, 2.5 mg/kg, SS-1, mice, 4 hours post oral dose 2.5 mg/kg, mean±SEM, read-out: Colon concentration): 2840 ± 716 ng/g | concentration at 4 h ([4]; colon, 2.5 mg/kg, SS-2, mice, 4 hours post oral dose 2.5 mg/kg, mean±SEM, read-out: Colon concentration): 1320 ± 270 ng/g | concentration at 4 h ([4]; colon, 5 mg/kg, SS-1, mice, 4 hours post oral dose 5 mg/kg, mean±SEM, read-out: Colon concentration): 4630 ± 705 ng/g | concentration at 4 h ([4]; colon, 5 mg/kg, SS-2, mice, 4 hours post oral dose 5 mg/kg, mean±SEM, read-out: Colon concentration): 4670 ± 953 ng/g | concentration at 4 h ([4]; colon, 25 mg/kg, SS-1, mice, 4 hours post oral dose 25 mg/kg, mean±SEM, read-out: Colon concentration): 27500 ± 6130 ng/g | concentration at 4 h ([4]; colon, 25 mg/kg, SS-2, mice, 4 hours post oral dose 25 mg/kg, mean±SEM, read-out: Colon concentration): 22900 ± 4150 ng/g | concentration at 4 h ([4]; serum, 5 mg/kg, SS-2, mice, 4 hours post oral dose 5 mg/kg, mean±SEM, read-out: Serum concentration): 10.3 ± 6.9 nM | concentration at 4 h ([4]; serum, 25 mg/kg, SS-1, mice, 4 hours post oral dose 25 mg/kg, mean±SEM, read-out: Serum concentration): 4.9 ± 2.1 nM | concentration at 4 h ([4]; serum, 25 mg/kg, SS-2, mice, 4 hours post oral dose 25 mg/kg, mean±SEM, read-out: Serum concentration): 6.3 ± 2.9 nM | concentration at 4 h ([4]; serum, SS-1 and SS-2, all oral doses, 4 hours post dose, read-out: systemic (serum) exposure): ≤ 10.3 nM | Serum concentration ([4]; SS-1, mice, 4 hours post oral dose 0.25 mg/kg, mean±SEM): BLOQ | Serum concentration ([4]; SS-1, mice, 4 hours post oral dose 2.5 mg/kg, mean±SEM): BLOQ | Serum concentration ([4]; SS-1, mice, 4 hours post oral dose 5 mg/kg, mean±SEM): BLOQ | Colon concentration ([4]; SS-1, mice, 4 hours post oral dose 25 mg/kg, mean±SEM, 25 mg/kg): 27488.1 ± 6128.6 ng/g | Serum concentration ([4]; SS-2, mice, 4 hours post oral dose 0.25 mg/kg, mean±SEM): BLOQ | Serum concentration ([4]; SS-2, mice, 4 hours post oral dose 2.5 mg/kg, mean±SEM): BLOQ | Colon concentration ([4]; SS-2, mice, 4 hours post oral dose 25 mg/kg, mean±SEM, 25 mg/kg): 22929.6 ± 4146.6 ng/g

Reference: US12390451B2, “Small molecule inhibitor of the JAK family of kinases” (Janssen Pharmaceutica NV, priority 2021, dated 2025)
